Measured values from PubChem BioAssay (NCI).
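Method: 48-hour compound exposure of cells in 96-well plates, five concentrations, linear interpolation of endpoints. TGI: concentration producing complete growth inhibition.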

Assays:
Test in all cases: inhibition of tumour cell growth, NCI panel, 48 h
A498 renal = system: A498 renal
CAKI-1 renal = system: CAKI-1 renal
HCT-116 colon = system: HCT-116 colon
HOP-62 NSCLC = system: HOP-62 NSCLC
MALME-3M melanoma = system: MALME-3M melanoma
OVCAR-3 ovarian = system: OVCAR-3 ovarian
SK-OV-3 ovarian = system: SK-OV-3 ovarian
SK-MEL-2 melanoma = system: SK-MEL-2 melanoma

SMILES | TGI (A498 renal) [µM] | TGI (CAKI-1 renal) [µM] | TGI (HCT-116 colon) [µM] | TGI (HOP-62 NSCLC) [µM] | TGI (MALME-3M melanoma) [µM] | TGI (OVCAR-3 ovarian) [µM] | TGI (SK-OV-3 ovarian) [µM] | TGI (SK-MEL-2 melanoma) [µM]
O=C(/C=C/c1ccc(O)cc1)c1cc(Cl)ccc1O | > 100 | > 100 | 58 | > 100 | > 100 | > 100 | > 100 | 
Cc1ccc2nc3c(C)cc(=O)cc-3sc2c1 |  | 37.4 | 34.2 | 58.8 | 81.1 | 55.2 | > 100 | 52.7
COC(=O)C1(O)c2ccccc2N=C2C1CCN2C (stereo not drawn) | > 100 | > 100 | > 100 | > 100 | > 100 |  | > 100 | > 100
CCCCCCCCCCCC(=O)OC(COC(N)=O)COc1ccc(Cl)cc1 (stereo not drawn) | > 100 | 44.3 | 30 | > 100 | 48.3 | 31.6 | > 100 | 74.4
O=C1CC[C@@H](NC(=O)Cc2ccccc2)C(=O)N1 | > 100 | > 100 | > 100 | > 100 | > 100 | > 100 | > 100 | > 100
NCC1(N2CCOCC2)C2CCCC21CNc1ccccc1 (stereo not drawn) |  | > 100 | > 100 | > 100 | > 100 | > 100 |  | 
CCCCC(C(=O)CCC(=O)Nc1ccc(Cl)cc1)C(=O)C(C)C (stereo not drawn) | > 100 | > 100 | > 100 | > 100 | > 100 | > 100 | > 100 | > 100
Cc1ccc(NC(=O)C(=O)CC(=O)c2ccccc2)cc1C | > 100 | > 100 | > 100 | > 100 | > 100 | > 100 | > 100 | 
Cn1cnc([N+](=O)[O-])c1Sc1nc2ccc([N+](=O)[O-])cc2[nH]1 | 83.4 | 26.7 | 57.8 | > 100 |  | > 100 | 62.5 | 
NC(=O)c1ncn(Cc2ccccc2)c1CNC(N)=S |  |  |  |  |  | > 100 | > 100 | 
c1ccc2c(c1)N=C(c1ccc3ccccc3c1)CC(c1cccc3ccccc13)S2 (stereo not drawn) | 75.4 | > 100 |  | > 100 | > 100 | > 100 | > 100 | > 100
CC1(C)CC(N2CCN(C3CC(C)(C)NC(C)(C)C3)CC2)CC(C)(C)N1 | > 100 | > 100 | > 100 | > 100 |  | > 100 | > 100 | 
